Source: patent US20040161786A1, “Gene panel participative in hepatic stellate cell activation” (priority 2001, published 2004)

System: hepatic fibrosis
Assay: Dimethylnitrosamine (DMN)-induced hepatic fibrosis, hydroxyproline (Hyp) in the liver
Assay type: in vivo
Details: SD male rat, DMN 10 mg/kg i.p. three times a week for four weeks, diet containing 0.5% L-cysteine vs 0.5% casein, 28th day
Procedure: Hepatic fibrosis was induced by intraperitoneally administering 10 mg/kg of dimethylnitrosamine (DMN) to a 6-week SD male rat three times a week for four weeks. Then, an experimental diet containing 0.5% of L-cysteine (Cys) as a subject and that containing 0.5% of casein as a control were fed from the initiation date of the DMN administration. On the 28th day from the initiation of the […] administration, the liver was sampled from the subject and the amount of hydroxyproline (Hyp) in the liver was measured as an index of hepatic fibrosis using an amino acid analyzer.

SMILES: N[C@@H](CS)C(=O)O [cysteine, L-cysteine]
- increase in Hyp in the liver (index of hepatic fibrosis): significantly suppressed
